Source: patent publication US10300065B2, “Method of treating or prevention of atherothrombotic events in patients with history of myocardial infarction” (ASTRAZENECA AB, priority 2015, dated 2019)

Test system: patients with a history of myocardial infarction
Experiment: PEGASUS-TIMI 54 trial, efficacy endpoints (intention-to-treat / full analysis set)
Assay type: in vivo, human
Settings: for Stent thrombosis: KM %: at 36 months
Source text: The PEGASUS-TIMI 54 trial (also referred to as the PEGASUS trial or PEGASUS study herein) was a randomized, double-blind, placebo-controlled multinational clinical trial that enrolled over 21,000 patients at 1,161 sites in 31 countries. The protocol was approved by the relevant ethics committees at all participating sites. In the U.S., the PEGASUS trial was assigned a ClinicalTrials.gov number of NCT01225562.
Patients could be randomized regardless of their prior adenosine diphosphate (ADP) receptor blocker therapy or a lapse in therapy.
Randomization was performed using a central computerized telephone or web based system, and allocation was double-blind.
All patients enrolled in the PEGASUS trial were instructed to take open label aspirin at a dose of 75 to 150 mg daily.
A total of 1360 primary endpoint events would be required to provide approximately 90% power to detect a 20% relative risk reduction with the 90 mg twice daily dose and approximately 83% power to detect a 19% relative risk reduction with the 60 mg twice daily dose when each dose was compared individually with placebo. The primary efficacy analysis was conducted on an intention-to-treat basis, with each of the two doses individually compared to placebo, as a time to event analysis from randomization to the first occurrence of any element of the primary composite endpoint: cardiovascular death, myocardial infarction, or stroke. […] An exploratory analysis of both doses combined compared with placebo was prespecified.

[1] = 60 mg bd, 5695 patients with a coronary stent
[2] = 60 mg bid (N = 7045), at 3 years
[3] = 60 mg bid vs. placebo (N = 6958)
[4] = 90 mg bd, 5651 patients with a coronary stent

Q: Which “Time to first stent thrombosis: HR” value (60 mg bd vs placebo) does the source give for `CCCSc1nc(N[C@@H]2C[C@H]2c2ccc(F)c(F)c2)c2nnn([C@@H]3C[C@H](OCCO)[C@@H](O)[C@H]3O)c2n1` [Ticagrelor, (1S,2S,3R,5S)-3-[7-{[(1R,2S)-2-(3,4-difluorophenyl)cyclopropyl]amino}-5-(propylthio)-3H-[1,2,3]-triazolo[4,5-d]pyrimidin-3-yl]-5-(2-hydroxyethoxy)cyclopentane-1,2-diol] here?
A: 0.82

Q: What about the “Composite of CV Death/MI/Stroke, landmark: KM % at 12 months” value (60 mg bd, 1-360 days) of the same compound?
A: 2.7%

Q: And the “Composite of CV Death/MI/Stroke, landmark: Patients with events” value (60 mg bd, 1-360 days)?
A: 189

Q: What about the “Composite of CV Death/MI/Stroke, landmark: Patients with events (%)” value (“Composite of CV Death/MI/Stroke … (%)” for short) (60 mg bd, 1-360 days) of the same compound?
A: (2.7%)

Q: What about the “Stent thrombosis: Patients (%) with events” value [1] of the same compound?
A: (0.7%)

Q: What about the “Stent thrombosis: Patients with events” value [1] of the same compound?
A: 41

Q: And the “Composite of CV Death/MI/Stroke, landmark: Patients with events” value (60 mg bd, 361 days or more)?
A: 298

Q: And the “Composite of CV Death/MI/Stroke … (%)” value (60 mg bd, 361 days or more)?
A: (4.4%)

Q: What about the “Stent thrombosis: KM %” value (60 mg bd) of the same compound?
A: 0.8%

Q: What about the “Composite of CV Death/MI/Stroke, landmark: KM % at 24 months” value (60 mg bd, cumulative from day 361 to day 720) of the same compound?
A: 2.7%

Q: What about the “Composite of CV Death/MI/Stroke, landmark: KM % at 36 months” value (60 mg bd, cumulative from day 361 to day 1080) of the same compound?
A: 5.2%

Q: What about the “MI: ARR (%)” value (60 mg bid) of the same compound?
A: 0.72%

Q: What about the “MI: NNT” value (60 mg bid) of the same compound?
A: 139

Q: And the “Stroke: ARR (%)” value (60 mg bid)?
A: 0.47%

Q: And the “Stroke: NNT” value (60 mg bid)?
A: 213

Q: And the “All Stroke: n” value (60 mg bid (N = 7045))?
A: 91

Q: What about the “Cardiovascular Death or Myocardial infarction: 3-year Kaplan-Meier estimate” value (60 mg bid (N = 7045)) of the same compound?
A: (6.77) %

Q: What about the “Cardiovascular Death or Myocardial infarction: n” value (60 mg bid (N = 7045)) of the same compound?
A: 422

Q: What about the “Cardiovascular Death, Myocardial infarction, or Stroke: 3-year Kaplan-Meier estimate” value (60 mg bid (N = 7045)) of the same compound?
A: 7.77%

Q: And the “Cardiovascular Death, Myocardial infarction, or Stroke: n” value (60 mg bid (N = 7045))?
A: 487

Q: What about the “Cardiovascular Death: n” value (60 mg bid (N = 7045)) of the same compound?
A: 174

Q: What about the “Coronary Heart Disease Death or Myocardial infarction: 3-year Kaplan-Meier estimate” value (60 mg bid (N = 7045)) of the same compound?
A: (5.57) %

Q: What about the “Coronary Heart Disease Death or Myocardial infarction: n” value (60 mg bid (N = 7045)) of the same compound?
A: 360

Q: What about the “Coronary Heart Disease Death, Myocardial infarction, or Stroke: 3-year Kaplan-Meier estimate” value (60 mg bid (N = 7045)) of the same compound?
A: (7.09) %

Q: And the “Coronary Heart Disease Death, Myocardial infarction, or Stroke: n” value (60 mg bid (N = 7045))?
A: 445

Q: What about the “Coronary Heart Disease Death: 3-year Kaplan-Meier estimate” value (60 mg bid (N = 7045)) of the same compound?
A: (1.72) %

Q: And the “Coronary Heart Disease Death: n” value (60 mg bid (N = 7045))?
A: 106

Q: And the “Death from any cause: n” value (60 mg bid (N = 7045))?
A: 289

Q: And the “Hospitalization for Unstable Angina: n” value (60 mg bid (N = 7045))?
A: 39

Q: What about the “Ischemic Stroke: 3-year Kaplan-Meier estimate” value (60 mg bid (N = 7045)) of the same compound?
A: (1.28) %

Q: What about the “Ischemic Stroke: n” value (60 mg bid (N = 7045)) of the same compound?
A: 78

Q: And the “Myocardial infarction as first-occurring component of the composite: n (patients with event)” value (60 mg bid (N = 7045))?
A: 283

Q: What about the “Myocardial infarction: n” value (60 mg bid (N = 7045)) of the same compound?
A: 285

Q: And the “Stroke as first-occurring component of the composite: n (patients with event)” value (60 mg bid (N = 7045))?
A: 88

Q: And the “Transient Ischemic Attack: n” value (60 mg bid (N = 7045))?
A: 17

Q: And the “Urgent Coronary Revascularization for Unstable Angina: n” value (60 mg bid (N = 7045))?
A: 62

Q: And the “Hospitalization for Unstable Angina: (%)” value [2]?
A: (0.61) %

Q: And the “Transient Ischemic Attack: (%)” value [2]?
A: (0.27) %

Q: What about the “Urgent Coronary Revascularization for Unstable Angina: (%)” value [2] of the same compound?
A: (0.95) %

Q: What about the “Cardiovascular Death or Myocardial infarction: HR” value (60 mg bid vs Placebo) of the same compound?
A: 0.85

Q: What about the “Cardiovascular Death, Myocardial infarction, or Stroke: HR” value (60 mg bid vs Placebo) of the same compound?
A: 0.84

Q: And the “Cardiovascular Death: HR” value (60 mg bid vs Placebo)?
A: 0.83

Q: And the “Coronary Heart Disease Death or Myocardial infarction: HR” value (60 mg bid vs Placebo)?
A: 0.84

Q: What about the “Coronary Heart Disease Death, Myocardial infarction, or Stroke: HR” value (60 mg bid vs Placebo) of the same compound?
A: 0.83

Q: What about the “Coronary Heart Disease Death: HR” value (60 mg bid vs Placebo) of the same compound?
A: 0.80

Q: What about the “Coronary stent thrombosis: RRR” value (60 mg bid vs Placebo) of the same compound?
A: 18%

Q: And the “Death from any cause: HR” value (60 mg bid vs Placebo)?
A: 0.89

Q: What about the “Hospitalization for Unstable Angina: HR” value (60 mg bid vs Placebo) of the same compound?
A: 1.05

Q: And the “Ischemic Stroke: HR” value (60 mg bid vs Placebo)?
A: 0.76

Q: And the “Transient Ischemic Attack: HR” value (60 mg bid vs Placebo)?
A: 1.00

Q: And the “Urgent Coronary Revascularization for Unstable Angina: HR” value (60 mg bid vs Placebo)?
A: 0.82

Q: And the “coronary heart disease death, myocardial infarction, or stroke: RRR” value (60 mg bid vs Placebo)?
A: 17%

Q: And the “Irreversible harm (CV death, MI, stroke, ICH, or fatal bleeding): HR” value [3]?
A: 0.86

Q: And the “Irreversible harm (CV death, MI, stroke, ICH, or fatal bleeding): RRR (%)” value [3]?
A: 14%

Q: And the “Net clinical benefit (CV death, MI, stroke, or TIMI major bleeding): HR” value [3]?
A: 0.95

Q: What about the “Net clinical benefit (CV death, MI, stroke, or TIMI major bleeding): RRR (%)” value [3] of the same compound?
A: 5%

Q: What about the “ischemic events prevented if 10,000 patients were started on treatment versus placebo” value (60 mg bid, intention-to-treat data) of the same compound?
A: 42

Q: And the “Time to first stent thrombosis: HR” value (90 mg bd vs placebo)?
A: 0.64

Q: And the “Composite of CV Death/MI/Stroke, landmark: KM % at 12 months” value (90 mg bd, 1-360 days)?
A: 2.8%

Q: And the “Composite of CV Death/MI/Stroke, landmark: Patients with events” value (90 mg bd, 1-360 days)?
A: 198

Q: What about the “Composite of CV Death/MI/Stroke … (%)” value (90 mg bd, 1-360 days) of the same compound?
A: (2.8%)

Q: What about the “Stent thrombosis: Patients (%) with events” value [4] of the same compound?
A: (0.6%)

Q: And the “Stent thrombosis: Patients with events” value [4]?
A: 32

Q: And the “Composite of CV Death/MI/Stroke, landmark: Patients with events” value (90 mg bd, 361 days or more)?
A: 295

Q: And the “Composite of CV Death/MI/Stroke … (%)” value (90 mg bd, 361 days or more)?
A: (4.4%)

Q: What about the “Stent thrombosis: KM %” value (90 mg bd) of the same compound?
A: 0.6%
